Experimental findings from US20230404989A1, “GRK2 INHIBITION BY PAROXETINE AMELIORATES OSTEOARTHRITIS” (THE PENN STATE RESEARCH FOUNDATION, priority 2020, published 2023) are described below.

SMILES strings stand for the structures. Entries after “also recorded” stand apart in the source; their conditions may differ.

Assay [1] relates to DMM mice. In words: DMM drug treatment study: OARSI scoring and histomorphometry of knee cartilage. The class given is in vivo, mouse. The following applies: for cartilage degeneration (Safranin-O and Fast Green histology) / chondro-protective and matrix-regenerative effects (overall) / total number of chondrocytes / uncalcified cartilage area: daily ip week 8 to 12; for OARSI score / number of matrix producing chondrocytes: daily ip week 8 to 12, versus vehicle. As to the method: Drug treatment studies: In twelve-week old male wild type C57BL/6 mice that received DMM surgeries, vehicle (PBS), paroxetine (5 mg/kg/day), fluoxetine (5 mg/kg/day), gallein (10 mg/kg/day) or indomethacin (2.5 mg/kg/day) were administered daily by ip injection. Drug treatment was initiated 8 weeks following DMM to determine the role of GRK2 signaling in the progression of OA.
Twelve-week-old male mice were administered DMM surgery to the right knee and sham surgery to the left knee as described (S. S. Glasson, Osteoarthritis. Cartilage. 15, 1061-1069 (2007)). Briefly, mice were anesthetized via intraperitoneal injection of ketamine (60 mg/kg) and xylazine (4 mg/kg), and a 5-mm-long incision was made on the medial side of the knee. Under a dissecting microscope, an incision was made along the medial side of the patellar tendon, opening the joint space. Using a #11 scalpel, the medial meniscotibial ligament (MMTL) was transected, enabling the medial meniscus to move freely. A similar skin incision was made in sham knees, but the joint structure was not disturbed. For the sham group, both right and left knees had sham surgeries. After surgery, 4-0 silk sutures were used to close the incision using an interrupted pattern. Mice were provided analgesia via intraperitoneal injection of buprenorphine (0.5 mg/kg) every 12 hours for 72 hours, and sutures were removed after 7 days. Mice were sacrificed, at the indicated time points, by anesthesia followed with whole animal perfusion using 10% NBF, knees were harvested and fixed for 7 days in 10% NBF, decalcified for 7 days in 10% w/v EDTA, embedded in paraffin, and 10-μm sections were cut and mounted for Safranin-O/Fast Green or IF staining.
Semi-quantitative histopathologic grading was performed using a derivative of the Chambers' scoring system that has been established by the OARSI histopathology initiative as the standard method for grading of mouse cartilage degeneration. Based on this system, cartilage grading was carried out using Safranin-O/Fast Green-stained midsagittal sections. Three sections from representative levels (50 μm apart) of the medial compartment of the joint were selected for each sample and, which were evaluated in a randomized, blinded manner by 3 laboratory members. The 3 scores were averaged to calculate the section score, and the sample score was then calculated by averaging the scores obtained from the three levels. Grading was performed using the following scale: 0=normal cartilage, 0.5=loss of proteoglycan stain without cartilage damage, 1=mild superficial fibrillation, 2=fibrillation and/or clefting extending below the superficial zone, 3=mild (<25%) loss of cartilage, 4=moderate (25-50%) loss of cartilage, 5=severe (50-75%) loss of uncalcified cartilage, and 6=eburnation with >75% loss of cartilage. Grading was performed by three blinded observers (F.K., M.J.Z., and E.R.S.). Observer agreement was evaluated in pairs via calculation of a weighted kappa coefficient, using Fleiss-Cohen weights, as we have described. The F.K. versus M.J.Z. coefficient was 0.92, the F.K. versus E.R.S. coefficient was 0.94, and the M.J.Z. versus E.R.S coefficient was 0.89, all indicative of strong agreement between the observers.
Using Safranin-O/Fast Green-stained sections, the OsteoMetrics system was used to quantify the above parameters on three sections from representative levels (50 μm apart) of the medial compartment of the joint for each sample. Live images of the center of the knee joint were collected through an Olympus microscope (10× objective) outfitted with a camera, a stylus was used to trace the regions of interest (ROIs). A blinded observer quantified uncalcified articular cartilage area, total chondrocyte number and matrix-producing chondrocyte number using the built-in area calculation algorithms and quantification functions of the OsteoMeasure® system. […]

Assay [2] relates to DMM mice. Description: Anterior femoral synovial membrane thickness in DMM mice. The class given is in vivo, mouse. The following applies: daily ip week 8 to 12, versus vehicle. As to the method:
Drug treatment studies: In twelve-week old male wild type C57BL/6 mice that received DMM surgeries, vehicle (PBS), paroxetine (5 mg/kg/day), fluoxetine (5 mg/kg/day), gallein (10 mg/kg/day) or indomethacin (2.5 mg/kg/day) were administered daily by ip injection. Drug treatment was initiated 8 weeks following DMM to determine the role of GRK2 signaling in the progression of OA. Using Safranin-O/Fast Green-stained sections, the OsteoMetrics system was used to quantify the above parameters on three sections from representative levels (50 μm apart) of the medial compartment of the joint for each sample. Live images of the center of the knee joint were collected through an Olympus microscope (10× objective) outfitted with a camera, a stylus was used to trace the regions of interest (ROIs). A blinded observer quantified uncalcified articular cartilage area, total chondrocyte number and matrix-producing chondrocyte number using the built-in area calculation algorithms and quantification functions of the OsteoMeasure® system. […] The calcified cartilage was determined with a line drawn along the tide mark, which is the naturally occurring line separating the calcified and uncalcified regions of the articular cartilage. A second line was drawn at the chondro-osseous junction where the calcified cartilage meets the subchondral bone. The uncalcified cartilage area was determined by subtracting the calcified cartilage area from the total area of cartilage. Total chondrocyte number and matrix-producing chondrocyte number were counted within the uncalcified cartilage region using count functions within the histomorphometry system. Matrix-producing chondrocytes were counted based on the region of Safranin-O staining within the extracellular matrix surrounding the articular chondrocyte, indicating anabolic signaling to maintain matrix homeostasis. Similarly, the anterior femoral synovial thickness was measured using OsteoMeasure® software. Synovial membrane thickness extending from anterior horn of the medial meniscus to the femur was determined by drawing a line from the inner insertion point on the femur towards the attachment on the meniscus. A second line was drawn from the outer insertion of the femur towards the attachment to the meniscus. The synovial thickness was calculated by dividing total synovial area by synovial perimeter.

Turning to `O=C1OC2(c3ccccc31)c1ccc(O)c(O)c1Oc1c2ccc(O)c1O` [gallein], in the assay on DMM mice [1], the “cartilage degeneration (Safranin-O and Fast Green histology)” value is “reduced”; the “chondro-protective and matrix-regenerative effects (overall)” value is “exert both a chondro-protective and a matrix-regenerative effects; also recorded: equivalent to that of paroxetine”; the “total number of chondrocytes” value is “preserved”; the uncalcified cartilage area result was “preserved”. Moreover, in the assay with DMM mice [1], the OARSI score entry is reported as “lower” and the “number of matrix producing chondrocytes” value is listed as “higher number”. The synovial membrane thickness result in the assay with DMM mice [2] was “as effective as indomethacin”.

Turning to `Fc1ccc([C@@H]2CCNC[C@H]2COc2ccc3c(c2)OCO3)cc1` [paroxetine], in the assay with DMM mice [1], the “cartilage degeneration (Safranin-O and Fast Green histology)” value was “reduced”; the “chondro-protective and matrix-regenerative effects (overall)” value is “exert both a chondro-protective and a matrix-regenerative effects”; the “total number of chondrocytes” value is “preserved”; the uncalcified cartilage area result was “preserved”. Also, in the assay with DMM mice [1], the OARSI score entry is given as “lower” and the “number of matrix producing chondrocytes” value is given as “higher number”. In addition, the synovial membrane thickness entry with DMM mice [2] is “as effective as indomethacin”.
